PC50 and PC95 data for one molecule are collected here from ChEMBL document CHEMBL3045030, “Insect antifeedants from tropical plants II: structure of zumsin” (2002).

Holding throughout (type): functional
The test system of assay [1] is Pectinophora gossypiella. As to the kind of experiment: Antifeedant activity against second-instar larvae of Pectinophora gossypiella (pink bollworm) in cotton glandless leaves assessed as 50% protection of host plant substrate after 48 hr.
The test system of assay [2] is Spodoptera frugiperda. As to the kind of experiment: Antifeedant activity against second-instar larvae of Spodoptera frugiperda (fall armyworm) in cotton glandless leaves assessed as 50% protection of host plant substrate after 48 hr.
In assay [3] the test system is Pectinophora gossypiella. As to the kind of experiment: Antifeedant activity against second-instar larvae of Pectinophora gossypiella (pink bollworm) in cotton glandless leaves assessed as 95% protection of host plant substrate after 48 hr.
The subject of assay [4] is Spodoptera frugiperda. As to the kind of experiment: Antifeedant activity against second-instar larvae of Spodoptera frugiperda (fall armyworm) in cotton glandless leaves assessed as 95% protection of host plant substrate after 48 hr.

On to `CC(=O)O[C@@H]1[C@@H]2[C@@]34CC(=O)C[C@@H]3OC(C)(C)[C@@H]4CC(=O)[C@@]2(C)[C@@]23O[C@@H]2C[C@H](c2ccoc2)[C@]3(C)[C@H]1OC(C)=O` [ZUMSIN], for which the values for the PC50 in assay [1] and in assay [2] were 1 microg/cm2 and 2 microg/cm2, respectively. Moreover, the PC95 is given as 8 microg/cm2 in assay [3] and 16 microg/cm2 in assay [4].
